Data as given in patent publication US10471046B2, “Method for treating, preventing, or reducing the risk of skin infection” (Melinta Subsidiary Corp., priority 2014, dated 2019).
Converted amounts (≈) assume the structure as drawn. Like-named read-outs stand apart in the source and are kept apart here.

Tested on: S. aureus
Test: Minimum inhibitory concentrations (MICs) for S. aureus of exemplary compounds (Table 2)
Format: cell-based
Conditions: Staphylococcus aureus, read-out: MICs
Outline: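 MICs (μg/mL) against S. aureus come from microtiter-tray dilution susceptibility testing per NCCLS M7-A5, comparing growth with and without compound.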

[1] = minimum inhibitory concentrations for S. aureus

MIC [1] [µg/mL] | SMILES | MIC [µg/mL]
8 (≈ 16.7 µM) | CC(=O)NC[C@H]1CN(c2ccc(-c3ccc(CNC(=O)c4ccc(F)cc4)cc3)c(F)c2)C(=O)O1 [Compound 4013, N-{4′-[5-(S)-(Acetylamino-methyl)-2-oxo-oxazolidin-3-yl]-2′-fluoro-biphenyl-4-ylmethyl}-4-fluoro-benzamide] | –
1 (≈ 2.19 µM) | CC(=O)NC[C@H]1CN(c2ccc(-c3ccc(CSc4nccs4)cc3)c(F)c2)C(=O)O1 [Compound 2030, N-{3-[2-Fluoro-4′-(thiazol-2-ylsulfanylmethyl)-biphenyl-4-yl]-2-oxo-oxazolidin-5-(S)-ylmethyl}-acetamide] | –
1 (≈ 2.01 µM) | CC(=O)NC[C@H]1CN(c2ccc(-c3ccc(CNCc4ccc5cccnc5c4)cc3)c(F)c2)C(=O)O1 [Compound 4138, N-[3-(2-Fluoro-4′-{[(quinolin-7-ylmethyl)-amino]-methyl}-biphenyl-4-yl)-2-oxo-oxazolidin-5-(S)-ylmethyl]-acetamide] | –
1 (≈ 2.15 µM) | CC(=O)NC[C@H]1CN(c2ccc(-c3ccc(C(=O)NCCc4cnc[nH]4)cc3)c(F)c2)C(=O)O1 [Compound 4116, 4′-[5-(S)-(Acetylamino-methyl)-2-oxo-oxazolidin-3-yl]-2′-fluoro-biphenyl-4-carboxylic acid [2-(3H-imidazol-4-yl)-ethyl]-amide] | –
4 (≈ 7.54 µM) | COc1ccc2[nH]c(C(=O)NCc3ccc(-c4ccc(N5C[C@H](CNC(C)=O)OC5=O)cc4F)cc3)cc2c1 [Compound 4015, 5-Methoxy-1H-indole-2-carboxylic acid {4′-[5-(S)-(acetylamino-methyl)-2-oxo-oxazolidin-3-yl]-2′-fluoro-biphenyl-4-ylmethyl}-amide] | –
4 (≈ 8.36 µM) | CC(=O)NC[C@H]1CN(c2ccc(-c3ccc(CN(C)C(=O)c4cccn4C)cc3)c(F)c2)C(=O)O1 [Compound 4051, 1-Methyl-1H-pyrrole-2-carboxylic acid {4′-[5-(S)-(acetylamino-methyl)-2-oxo-oxazolidin-3-yl]-2′-fluoro-biphenyl-4-ylmethyl}-methyl-amide] | –
1 (≈ 2.29 µM) | CC(=O)NC[C@H]1CN(c2ccc(-c3ccc(CNCc4ccoc4)cc3)c(F)c2)C(=O)O1 [Compound 4023, N-[3-(2-Fluoro-4′-{[(furan-3-ylmethyl)-amino]-methyl}-biphenyl-4-yl)-2-oxo-oxazolidin-5-(S)-ylmethyl]-acetamide] | –
4 (≈ 8.65 µM) | CC(=O)NC[C@H]1CN(c2ccc(-c3ccc(CNCCc4ccccn4)cc3)c(F)c2)C(=O)O1 [Compound 4087, N-(3-{2-Fluoro-4′-[(2-pyridin-2-yl-ethylamino)-methyl]-biphenyl-4-yl}-2-oxo-oxazolidin-5-(S)-ylmethyl)-acetamide] | –
2 (≈ 4.2 µM) | CC(=O)NC[C@H]1CN(c2ccc(-c3ccc(Cn4cnc5c(=O)[nH]cnc54)cc3)c(F)c2)C(=O)O1 [Compound 1111, N-{3-[2-Fluoro-4′-(6-oxo-1,6-dihydro-purin-9-ylmethyl)-biphenyl-4-yl]-2-oxo-oxazolidin-5-(S)-ylmethyl}-acetamide] | –
0.25 (≈ 0.57 µM) | CC(=O)NC[C@H]1CN(c2ccc(-c3ccc(CNCc4cnoc4)cc3)c(F)c2)C(=O)O1 [Compound 4038, N-[3-(2-Fluoro-4′-{[(isoxazol-4-ylmethyl)-amino]-methyl}-biphenyl-4-yl)-2-oxo-oxazolidin-5-(S)-ylmethyl]-acetamide] | –
2 (≈ 4.18 µM) | COc1ncccc1CNCc1ccc(-c2ccc(N3C[C@H](CNC(C)=O)OC3=O)cc2F)cc1 [Compound 4151, N-[3-(2-Fluoro-4′-{[(2-methoxy-pyridin-3-ylmethyl)-amino]-methyl}-biphenyl-4-yl)-2-oxo-oxazolidin-5-(S)-ylmethyl]-acetamide] | –
32 (≈ 62.9 µM) | CC(=O)NC[C@H]1CN(c2ccc(-c3ccc(C(=O)N[C@@H](Cc4cnc[nH]4)C(N)=O)cc3)c(F)c2)C(=O)O1 [Compound 4173, 4′-[5-(S)-(Acetylamino-methyl)-2-oxo-oxazolidin-3-yl]-2′-fluoro-biphenyl-4-carboxylic acid [1-carbamoyl-2-(S)-(3H-imidazol-4-yl)-ethyl]-amide] | –
0.5 (≈ 1.1 µM) | CC(=O)NC[C@H]1CN(c2ccc(-c3ccc(CN4CCN(C=O)CC4)cc3)c(F)c2)C(=O)O1 [Compound 1006, N-{3-[2-Fluoro-4′-(4-formyl-piperazin-1-ylmethyl)-biphenyl-4-yl]-2-oxo-oxazolidin-5-(S)-ylmethyl}-acetamide] | –
1 (≈ 2.02 µM) | CC(=O)NC[C@H]1CN(c2ccc(-c3ccc(Cn4cnc5c(Cl)ncnc54)cc3)c(F)c2)C(=O)O1 [Compound 1100, N-{3-[4′-(6-Chloro-purin-9-ylmethyl)-2-fluoro-biphenyl-4-yl]-2-oxo-oxazolidin-5-(S)-ylmethyl}-acetamide] | –
2 (≈ 4.24 µM) | CC(=O)NC[C@H]1CN(c2ccc(-c3ccc(C[S+]([O-])c4ncnn4C)cc3)c(F)c2)C(=O)O1 (stereo partly drawn) [Compound 2039, N-{3-[2-Fluoro-4′-(2-methyl-2H-[1,2,4]triazole-3-sulfinylmethyl)-biphenyl-4-yl]-2-oxo-oxazolidin-5-(S)-ylmethyl}-acetamide] | –
2 (≈ 3.37 µM) | CC(=O)NC[C@H]1CN(c2ccc(-c3ccc(CNCc4ccc(-c5cccc(S(N)(=O)=O)c5)o4)cc3)c(F)c2)C(=O)O1 [Compound 4158, N-{3-[2-Fluoro-4′-({[5-(3-sulfamoyl-phenyl)-furan-2-ylmethyl]-amino}-methyl)-biphenyl-4-yl]-2-oxo-oxazolidin-5-(S)-ylmethyl}-acetamide] | –
16 (≈ 34.4 µM) | CCc1ncc(CNCc2ccc(-c3ccc(N4C[C@H](CNC(C)=O)OC4=O)cc3F)cc2)[nH]1 [Compound 4124, N-[3-(4′-{[(2-Ethyl-3H-imidazol-4-ylmethyl)-amino]-methyl}-2-fluoro-biphenyl-4-yl)-2-oxo-oxazolidin-5-(S)-ylmethyl]-acetamide] | –
2 (≈ 3.85 µM) | CC(=O)NC[C@H]1CN(c2ccc(-c3ccc([C@H](O)CN(Cc4ccccc4)C(C)=O)cc3)c(F)c2)C(=O)O1 [Compound 4250, N-(2-{4′-[5-(S)-(Acetylamino-methyl)-2-oxo-oxazolidin-3-yl]-2′-fluoro-biphenyl-4-yl}-2-(S)-hydroxy-ethyl)-N-benzyl-acetamide] | –
1 (≈ 1.85 µM) | CC(=O)NC[C@H]1CN(c2ccc(-c3ccc(CNc4nc(CNC(=O)[C@H](C)N)ns4)cc3)c(F)c2)C(=O)O1 [Compound 2013, N-[5-({4′[5-(S)-(Acetylamino-methyl)-2-oxo-oxazolidin-3-yl]-2′-fluoro-biphenyl-4-ylmethyl}-amino)-[1,2,4]thiadiazol-3-ylmethyl]-2-(S)-amino-propionamide] | –
1 (≈ 2 µM) | CC(=O)NC[C@H]1CN(c2ccc(-c3ccc(CNCCSc4nccs4)cc3)c(F)c2)C(=O)O1 [Compound 5006, N-[3-(2-Fluoro-4′-{[2-(thiazol-2-ylsulfanyl)-ethylamino]-methyl}-biphenyl-4-yl)-2-oxo-oxazolidin-5-(S)-ylmethyl]-acetamide] | –
4 (≈ 7.25 µM) | CSCCN(Cc1ccccc1)C[C@@H](O)c1ccc(-c2ccc(N3C[C@H](CNC(C)=O)OC3=O)cc2F)cc1 [Compound 4248, N-[3-(4′-{2-[Benzyl-(2-methylsulfanyl-ethyl)-amino]-1-(S)-hydroxy-ethyl}-2-fluoro-biphenyl-4-yl)-2-oxo-oxazolidin-5-(S)-ylmethyl]-acetamide] | –
2 (≈ 3.75 µM) | CC(=O)NC[C@H]1CN(c2ccc(-c3ccc(Cn4cnc5c(NCCCO)ncnc54)cc3)c(F)c2)C(=O)O1 [Compound 1107, N-(3-{2-Fluoro-4′-[6-(3-hydroxy-propylamino)-purin-9-ylmethyl]-biphenyl-4-yl}-2-oxo-oxazolidin-5-(S)-ylmethyl)-acetamide] | –
0.25 (≈ 0.585 µM) | CC(=O)NC[C@H]1CN(c2ccc(-c3ccc(CN4CCOC4=O)cc3)c(F)c2)C(=O)O1 [Compound 1101, N-{3-[2-Fluoro-4′-(2-oxo-oxazolidin-3-ylmethyl)-biphenyl-4-yl]-2-oxo-oxazolidin-5-(S)-ylmethyl}-acetamide] | –
1 (≈ 2.21 µM) | CC(=O)NC[C@H]1CN(c2ccc(-c3ccc(CSc4ccncc4)cc3)c(F)c2)C(=O)O1 [Compound 2019, N-{3-[2-Fluoro-4′-(pyridin-4-ylsulfanylmethyl)-biphenyl-4-yl]-2-oxo-oxazolidin-5-(S)-ylmethyl}-acetamide] | –
1 (≈ 2.25 µM) | CC(=O)NC[C@H]1CN(c2ccc(-c3ccc(CN4CCC(F)CC4)cc3)c(F)c2)C(=O)O1 [Compound 1094, N-{3-[2-Fluoro-4′-(4-fluoro-piperidin-1-ylmethyl)-biphenyl-4-yl]-2-oxo-oxazolidin-5-(S)-ylmethyl}-acetamide] | –
2 (≈ 3.81 µM) | CC(=O)NC[C@H]1CN(c2ccc(-c3ccc(CNCc4ccc(-c5ccccn5)cc4)cc3)c(F)c2)C(=O)O1 [Compound 4017, N-(3-{2-Fluoro-4′-[(4-pyridin-2-yl-benzylamino)-methyl]-biphenyl-4-yl}-2-oxo-oxazolidin-5-(S)-ylmethyl)-acetamide] | –
– | CC(=O)NC[C@H]1CN(c2ccc(-c3ccc(Cc4c[nH]cn4)cc3)c(F)c2)C(=O)O1 [Compound 1086, N-{3-[2-Fluoro-4′-(1H-imidazol-4-ylmethyl)-biphenyl-4-yl]-2-oxo-oxazolidin-5-(S)-ylmethyl}-acetamide] | 0.5 (≈ 1.22 µM)
128 (≈ 276 µM) | CC(=O)NC[C@H]1CN(c2ccc(-c3ccc(NC(=O)Nc4ccncc4)cc3)c(F)c2)C(=O)O1 [Compound 6006, N-{3-[2-Fluoro-4′-(3-pyridin-4-yl-ureido)-biphenyl-4-yl]-2-oxo-oxazolidin-5-(S)-ylmethyl}-acetamide] | –
1 (≈ 2.21 µM) | CC(=O)NC[C@H]1CN(c2ccc(-c3ccc(Cn4cc(C(=O)O)cn4)cc3)c(F)c2)C(=O)O1 [Compound 1051, 1-{4′-[5-(S)-(Acetylamino-methyl)-2-oxo-oxazolidin-3-yl]-2′-fluoro-biphenyl-4-ylmethyl}-1H-pyrazole-4-carboxylic acid] | –

SMILES | MIC [1] [µg/mL] | MIC [µg/mL]
CC(=O)NC[C@H]1CN(c2ccc(-c3ccc(CNCc4cnn[nH]4)cc3)c(F)c2)C(=O)O1 [Compound 4267, N-[3-(2-Fluoro-4′-{[(3H-[1,2,3]triazol-4-ylmethyl)-amino]-methyl}-biphenyl-4-yl)-2-oxo-oxazolidin-5-(S)-ylmethyl]-acetamide] | 0.25 (≈ 0.57 µM) | –
